Assay results published in ChEMBL document CHEMBL4364313, “Synthesis of new 5,6,7,8-tetrahydropyrido[1,2-c]pyrimidine derivatives with rigidized tryptamine moiety as potential SSRI and 5-HT1A receptor ligands” (Eur J Med Chem, 2019).
Each block holds one compound with its values, some of them ahead of it. Calls of active or inactive are those of the source. No cut-off for these calls is given here.

Columns and labels:
[1] = target: Serotonin transporter (SERT); experiment: biochemical
[2] = Half life in human liver microsomes at 1 uM measured for 5 to 60 mins under shaking condition in presence of NADPH by LCMS analysis; format: ADME, Microsome
[3] = target: 5-hydroxytryptamine receptor 2A (Homo sapiens, UniProt P28223); experiment: Displacement of [3H]ketanserin from human 5HT2A receptor expressed in HEK293 cells incubated for 1.5 hrs by Cheng-Prusoff analysis based microbeta scintillation counting method; format: cell-based
[4] = system: Mus musculus; experiment: Induction of hypothermia in CD-1 mouse assessed as change in body temperature at 5 mg/kg, ip treated for 30 mins and measured after 30 mins by thermometric method; format: functional, organism-based
[5] = system: Mus musculus; experiment: Induction of hypothermia in CD-1 mouse assessed as change in body temperature at 5 mg/kg, ip treated for 60 mins and measured after 30 mins by thermometric method; format: functional, organism-based
[6] = system: Mus musculus; experiment: Induction of hypothermia in CD-1 mouse assessed as change in body temperature at 5 mg/kg, ip treated for 90 mins and measured after 30 mins by thermometric method; format: functional, organism-based
[7] = system: Mus musculus; experiment: Induction of hypothermia in CD-1 mouse assessed as change in body temperature at 5 mg/kg, ip treated for 120 mins and measured after 30 mins by thermometric method; format: functional, organism-based
[8] = system: Mus musculus; experiment: Induction of hypothermia in CD-1 mouse assessed as change in body temperature at 20 mg/kg, ip treated for 30 mins and measured after 30 mins by thermometric method; format: functional, organism-based
[9] = system: Mus musculus; experiment: Induction of hypothermia in CD-1 mouse assessed as change in body temperature at 20 mg/kg, ip treated for 60 mins and measured after 30 mins by thermometric method; format: functional, organism-based
[10] = system: Mus musculus; experiment: Induction of hypothermia in CD-1 mouse assessed as change in body temperature at 20 mg/kg, ip treated for 90 mins and measured after 30 mins by thermometric method; format: functional, organism-based
[11] = system: Mus musculus; experiment: Induction of hypothermia in CD-1 mouse assessed as change in body temperature at 20 mg/kg, ip treated for 120 mins and measured after 30 mins by thermometric method; format: functional, organism-based
[12] = system: Mus musculus; experiment: Inhibition of 8-OH-DPAT-induced hypothermia in CD-1 mouse assessed change in body temperature at 20 mg/kg, ip pretreated for 45 mins followed by 8-OH-DPAT addition and measured after 15 mins by thermometric method; format: functional, organism-based
[13] = system: Mus musculus; experiment: Inhibition of 8-OH-DPAT-induced hypothermia in CD-1 mouse assessed change in body temperature at 20 mg/kg, ip pretreated for 45 mins followed by 8-OH-DPAT addition and measured after 30 mins by thermometric method; format: functional, organism-based
[14] = system: Mus musculus; experiment: Inhibition of 8-OH-DPAT-induced hypothermia in CD-1 mouse assessed change in body temperature at 20 mg/kg, ip pretreated for 45 mins followed by 8-OH-DPAT addition and measured after 45 mins by thermometric method; format: functional, organism-based
[15] = system: Mus musculus; experiment: Inhibition of 8-OH-DPAT-induced hypothermia in CD-1 mouse assessed change in body temperature at 20 mg/kg, ip pretreated for 45 mins followed by 8-OH-DPAT addition and measured after 60 mins by thermometric method; format: functional, organism-based
[16] = species: Mus musculus; experiment: Effect on forepaw treading in CD-1 mouse up to 30 mins in presence of 8-OH-DPAT; format: functional, organism-based
[17] = species: Mus musculus; experiment: Effect on forepaw treading in CD-1 mouse; format: ADME, organism-based; conditions: in vivo
[18] = target: 5-hydroxytryptamine receptor 6 (Homo sapiens, UniProt P50406); experiment: biochemical
Description: Displacement of [3H]LSD from human 5-HT6 receptor expressed in HEK cells incubated for 1 hr by Cheng-Prusoff analysis based microbeta scintillation counting method

[19] = target: 5-hydroxytryptamine receptor 7 (Homo sapiens, UniProt P34969); experiment: biochemical
Description: Displacement of [3H]-5-CT from human 5HT7 receptor expressed in HEK cells incubated for 1 hr by Cheng-Prusoff analysis based microbeta scintillation counting method

[20] = target: D(2) dopamine receptor (Homo sapiens, UniProt P14416); experiment: biochemical
Description: Displacement of [3H]-raclopride from human D2 receptor expressed in HEK cells incubated for 1 hr by Cheng-Prusoff analysis based microbeta scintillation counting method

[21] = system: Mus musculus; experiment: Psychoactive effect in CD-1 mouse assessed as effect on immobility time at 5 to 20 mg/kg, ip pretreated for 30 mins and measured after 6 mins by force swim test; format: ADME, organism-based; conditions: in vivo, 0.1 h
[22] = species: Mus musculus; experiment: Effect on forepaw treading in CD-1 mouse in presence of 8-OH-DPAT; format: functional, organism-based

Sequence of 5-hydroxytryptamine receptor 2A (P28223 whole entry): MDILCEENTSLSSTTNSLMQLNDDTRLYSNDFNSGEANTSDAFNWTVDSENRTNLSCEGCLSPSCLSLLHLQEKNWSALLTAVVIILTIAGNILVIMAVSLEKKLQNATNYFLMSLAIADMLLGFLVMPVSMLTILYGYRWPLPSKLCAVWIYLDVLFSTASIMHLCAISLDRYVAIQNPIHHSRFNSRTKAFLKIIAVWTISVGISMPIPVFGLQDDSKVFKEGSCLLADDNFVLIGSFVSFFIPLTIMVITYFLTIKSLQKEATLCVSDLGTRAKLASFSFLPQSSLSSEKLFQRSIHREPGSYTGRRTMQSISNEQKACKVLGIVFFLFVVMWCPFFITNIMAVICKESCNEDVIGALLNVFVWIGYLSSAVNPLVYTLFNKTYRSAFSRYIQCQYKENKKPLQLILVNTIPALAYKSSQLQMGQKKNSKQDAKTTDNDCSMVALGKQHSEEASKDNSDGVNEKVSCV
Sequence of D(2) dopamine receptor (P14416 whole entry): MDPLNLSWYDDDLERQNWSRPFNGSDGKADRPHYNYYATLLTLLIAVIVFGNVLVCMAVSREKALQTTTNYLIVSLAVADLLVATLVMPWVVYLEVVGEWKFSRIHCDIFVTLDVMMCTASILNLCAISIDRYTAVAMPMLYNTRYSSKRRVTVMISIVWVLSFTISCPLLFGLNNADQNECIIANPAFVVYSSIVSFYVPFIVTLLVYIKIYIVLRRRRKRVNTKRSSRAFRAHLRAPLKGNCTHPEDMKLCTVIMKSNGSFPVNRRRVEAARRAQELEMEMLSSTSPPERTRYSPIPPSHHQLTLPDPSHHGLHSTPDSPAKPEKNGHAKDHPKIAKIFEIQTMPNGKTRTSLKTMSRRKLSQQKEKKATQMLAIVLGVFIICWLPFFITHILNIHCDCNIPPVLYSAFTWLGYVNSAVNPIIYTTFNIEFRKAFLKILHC
Sequence of 5-hydroxytryptamine receptor 7 (P34969 whole entry): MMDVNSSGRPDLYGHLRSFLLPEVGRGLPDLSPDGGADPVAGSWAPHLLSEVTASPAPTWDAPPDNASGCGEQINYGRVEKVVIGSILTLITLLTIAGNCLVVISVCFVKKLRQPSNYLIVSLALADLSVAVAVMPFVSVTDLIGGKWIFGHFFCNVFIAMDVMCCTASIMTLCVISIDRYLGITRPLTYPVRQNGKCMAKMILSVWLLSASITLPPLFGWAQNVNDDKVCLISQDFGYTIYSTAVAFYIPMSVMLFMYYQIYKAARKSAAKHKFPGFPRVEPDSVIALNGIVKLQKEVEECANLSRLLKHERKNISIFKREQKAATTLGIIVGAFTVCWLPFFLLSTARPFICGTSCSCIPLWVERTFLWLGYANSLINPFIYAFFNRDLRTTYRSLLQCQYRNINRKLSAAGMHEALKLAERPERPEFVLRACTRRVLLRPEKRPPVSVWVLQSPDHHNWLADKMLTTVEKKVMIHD
Sequence of 5-hydroxytryptamine receptor 6 (P50406 whole entry): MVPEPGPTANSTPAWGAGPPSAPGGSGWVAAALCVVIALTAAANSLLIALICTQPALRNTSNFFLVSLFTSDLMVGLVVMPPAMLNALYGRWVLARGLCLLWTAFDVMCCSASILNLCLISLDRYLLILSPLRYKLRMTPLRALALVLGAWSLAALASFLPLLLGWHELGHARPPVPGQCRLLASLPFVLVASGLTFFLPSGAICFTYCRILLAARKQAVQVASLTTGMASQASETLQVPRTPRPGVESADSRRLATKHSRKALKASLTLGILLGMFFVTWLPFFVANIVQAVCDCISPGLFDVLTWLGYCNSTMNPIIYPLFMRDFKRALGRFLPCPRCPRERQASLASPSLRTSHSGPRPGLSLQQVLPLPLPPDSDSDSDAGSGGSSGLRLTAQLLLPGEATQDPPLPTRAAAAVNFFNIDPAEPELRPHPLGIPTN

SMILES: COc1ccc2[nH]cc(C3CCCN(CCCCn4c(=O)c(-c5ccccc5F)c5n(c4=O)CCCC5)C3)c2c1 (centres undefined)
Ki [1]: 236 nM

SMILES: COc1ccc2[nH]cc(C3CCCN(CCCCn4c(=O)c(-c5ccc(C)cc5)c5n(c4=O)CCCC5)C3)c2c1 (centres undefined)
Ki [1]: 321 nM

SMILES: O=C1CC2(CCCC2)CC(=O)N1CCCCN1CCN(c2ncccn2)CC1 [BUSPIRONE]
half-life at 1 µM [2]: 6.6 min

SMILES: COc1ccc2[nH]cc(C3CCCN(CCCCn4c(=O)c(-c5ccccc5)c5n(c4=O)CCCC5)C3)c2c1 (centres undefined)
Ki [1]: 102 nM

SMILES: O=c1c(-c2ccccc2)c2n(c(=O)n1CCCCN1CCCC(c3c[nH]c4ccc(F)cc34)C1)CCCC2 (centres undefined)
Ki [1]: 105 nM

SMILES: COc1ccc2[nH]cc(C3CCCN(CCCCn4c(=O)c(-c5ccccc5OC)c5n(c4=O)CCCC5)C3)c2c1 (centres undefined)
Ki [1]: 239 nM

SMILES: COc1ccc2[nH]cc(C3CCCN(CCCCn4c(=O)c(-c5ccc(F)cc5)c5n(c4=O)CCCC5)C3)c2c1 (centres undefined)
Ki [1]: 76 nM

SMILES: Cc1ccccc1-c1c2n(c(=O)n(CCCCN3CCCC(c4c[nH]c5ccc(F)cc45)C3)c1=O)CCCC2 (centres undefined)
Ki [1]: 142 nM

SMILES: COc1ccc2[nH]cc(C3CCCN(CCCCn4c(=O)c(-c5ccccc5C)c5n(c4=O)CCCC5)C3)c2c1 (centres undefined)
Ki [1]: 66 nM

SMILES: Cc1ccccc1-c1c2n(c(=O)n(CCCCN3CCCC(c4c[nH]c5ccccc45)C3)c1=O)CCCC2 (centres undefined)
Ki [1]: 62 nM

SMILES: Cc1ccc(-c2c3n(c(=O)n(CCCCN4CCCC(c5c[nH]c6ccc(F)cc56)C4)c2=O)CCCC3)cc1 (centres undefined)
Ki [1]: 233 nM

SMILES: O=c1c(-c2ccc(Cl)cc2)c2n(c(=O)n1CCCCN1CCCC(c3c[nH]c4ccc(F)cc34)C1)CCCC2 (centres undefined)
Ki [1]: 259 nM

Continued by falling Ki [1], values first:

Ki [1]: 52 nM
SMILES: COc1ccc(-c2c3n(c(=O)n(CCCCN4CCCC(c5c[nH]c6ccccc56)C4)c2=O)CCCC3)cc1 (centres undefined)

Ki [3]: 1190 nM
half-life at 1 µM [2]: 7 min
Ki [1]: 52 nM
Ki [18]: 452 nM
Ki [19]: 546 nM
Ki [20]: 1800 nM
SMILES: COc1ccc(-c2c3n(c(=O)n(CCCCN4CCCC(c5c[nH]c6ccc(OC)cc56)C4)c2=O)CCCC3)cc1 (centres undefined)

Ki [1]: 50 nM
SMILES: Cc1ccc(-c2c3n(c(=O)n(CCCCN4CCCC(c5c[nH]c6ccccc56)C4)c2=O)CCCC3)cc1 (centres undefined)

Ki [1]: 50 nM
SMILES: COc1ccc2[nH]cc(C3CCCN(CCCCn4c(=O)c(-c5ccccc5Cl)c5n(c4=O)CCCC5)C3)c2c1 (centres undefined)

Ki [1]: 47 nM
SMILES: O=c1c(-c2ccccc2Cl)c2n(c(=O)n1CCCCN1CCCC(c3c[nH]c4ccc(F)cc34)C1)CCCC2 (centres undefined)

Ki [1]: 42 nM
SMILES: COc1ccc(-c2c3n(c(=O)n(CCCCN4CCCC(c5c[nH]c6ccc(F)cc56)C4)c2=O)CCCC3)cc1 (centres undefined)

Ki [1]: 40 nM
SMILES: COc1ccccc1-c1c2n(c(=O)n(CCCCN3CCCC(c4c[nH]c5ccc(F)cc45)C3)c1=O)CCCC2 (centres undefined)

Ki [3]: 484 nM
half-life at 1 µM [2]: 6.2 min
Ki [1]: 31 nM
Ki [18]: 728 nM
Ki [19]: 1110 nM
Ki [20]: 1050 nM
SMILES: O=c1c(-c2ccc(F)cc2)c2n(c(=O)n1CCCCN1CCCC(c3c[nH]c4ccc(F)cc34)C1)CCCC2 (centres undefined)
deltaT [4]: 0.8 °C
deltaT [5]: 0.8 °C
deltaT [6]: 0.6 °C
deltaT [7]: 0.9 °C
deltaT [8]: -0.6 °C
deltaT [9]: 0.1 °C
deltaT [10]: 0.1 °C
deltaT [11]: 0 °C
deltaT [12]: -0.1 °C
deltaT [13]: 0.2 °C
deltaT [14]: -0.3 °C
deltaT [15]: -0.4 °C
Activity [16]: Active
Activity [17]: Non-Toxic

Ki [3]: 1490 nM
Ki [1]: 30 nM
Ki [18]: 1320 nM
Ki [19]: 1380 nM
Ki [20]: 1650 nM
SMILES: O=c1c(-c2ccc(Cl)cc2)c2n(c(=O)n1CCCCN1CCCC(c3c[nH]c4ccccc34)C1)CCCC2 (centres undefined)
deltaT [4]: 0.1 °C
deltaT [5]: 0.3 °C
deltaT [6]: -0.1 °C
deltaT [7]: 0.2 °C
deltaT [8]: 0.3 °C
deltaT [9]: 0.7 °C
deltaT [10]: 0.5 °C
deltaT [11]: 0.3 °C
deltaT [12]: -1.1 °C
deltaT [13]: -1.1 °C
deltaT [14]: -1.2 °C
deltaT [15]: -1.2 °C

Ki [1]: 28 nM
SMILES: O=c1c(-c2ccccc2F)c2n(c(=O)n1CCCCN1CCCC(c3c[nH]c4ccc(F)cc34)C1)CCCC2 (centres undefined)

Ki [3]: 725 nM
half-life at 1 µM [2]: 11.1 min
Ki [1]: 27 nM
Ki [18]: 1150 nM
Ki [19]: 1090 nM
Ki [20]: 2350 nM
SMILES: O=c1c(-c2ccccc2)c2n(c(=O)n1CCCCN1CCCC(c3c[nH]c4ccccc34)C1)CCCC2 (centres undefined)
deltaT [4]: 0.2 °C
deltaT [5]: 0.3 °C
deltaT [6]: 0.3 °C
deltaT [7]: 0.8 °C
deltaT [8]: -0.6 °C
deltaT [9]: 0 °C
deltaT [10]: -0.2 °C
deltaT [11]: -0.1 °C
deltaT [12]: -1.2 °C
deltaT [13]: -1.1 °C
deltaT [14]: -0.9 °C
deltaT [15]: 0.7 °C

Ki [1]: 25 nM
SMILES: COc1ccccc1-c1c2n(c(=O)n(CCCCN3CCCC(c4c[nH]c5ccccc45)C3)c1=O)CCCC2 (centres undefined)

Ki [1]: 23 nM
SMILES: COc1ccc2[nH]cc(C3CCCN(CCCCn4c(=O)c(-c5ccc(Cl)cc5)c5n(c4=O)CCCC5)C3)c2c1 (centres undefined)

Ki [3]: 325 nM
half-life at 1 µM [2]: 12 min
Ki [1]: 15 nM
Ki [18]: 1030 nM
Ki [19]: 2430 nM
Ki [20]: > 10000 nM
SMILES: O=c1c(-c2ccccc2F)c2n(c(=O)n1CCCCN1CCCC(c3c[nH]c4ccccc34)C1)CCCC2 (centres undefined)
deltaT [4]: 0.2 °C
deltaT [5]: 0.3 °C
deltaT [6]: 0.7 °C
deltaT [7]: 1 °C
deltaT [8]: -0.8 °C
deltaT [9]: 0 °C
deltaT [10]: 0.6 °C
deltaT [11]: 0.7 °C
deltaT [12]: -1.6 °C
deltaT [13]: -1.8 °C
deltaT [14]: -1.9 °C
deltaT [15]: -1.8 °C

Ki [3]: 1280 nM
half-life at 1 µM [2]: 7 min
Ki [1]: 13 nM
Ki [18]: 1650 nM
Ki [19]: 1710 nM
Ki [20]: 1980 nM
SMILES: O=c1c(-c2ccc(F)cc2)c2n(c(=O)n1CCCCN1CCCC(c3c[nH]c4ccccc34)C1)CCCC2 (centres undefined)
deltaT [4]: 0.3 °C
deltaT [5]: 0.3 °C
deltaT [6]: 0.3 °C
deltaT [7]: 0.5 °C
deltaT [8]: 0.1 °C
deltaT [9]: 0.3 °C
deltaT [10]: -0.1 °C
deltaT [11]: 0.1 °C
deltaT [12]: -0.2 °C
deltaT [13]: -0.2 °C
deltaT [14]: -0.3 °C
deltaT [15]: -0.9 °C
Activity [21]: Non-Toxic
Activity [22]: Active

Ki [3]: 609 nM
half-life at 1 µM [2]: 7 min
Ki [1]: 8 nM
Ki [18]: 1030 nM
Ki [19]: 1360 nM
Ki [20]: 896 nM
SMILES: O=c1c(-c2ccccc2Cl)c2n(c(=O)n1CCCCN1CCCC(c3c[nH]c4ccccc34)C1)CCCC2 (centres undefined)
deltaT [4]: 0 °C
deltaT [5]: 0.3 °C
deltaT [6]: 0.9 °C
deltaT [7]: 0.8 °C
deltaT [8]: -0.8 °C
deltaT [9]: 0.2 °C
deltaT [10]: 0.3 °C
deltaT [11]: 0.2 °C
